Experimental data published in patent US12077503B2, “Substituted cyclic amides and their use as herbicides” (FMC CORPORATION, priority 2015, dated 2024).
Like-named read-outs stand apart in the source and are kept apart here.

Assays:
Assay type in all cases: in vivo
[1] = system: ryegrass, Italian (Italian ryegrass, Lolium multiflorum); assay: Test A preemergence; details: Lolium multiflorum, pre-emergence, 240 h; for pest or weed control at 125 g/ha: 125 g ai/ha, visual injury rating after approximately 10 d, read-out: Ryegrass, Italian plant response rating (0 to 100 scale, 0 is no effect, 100 is complete control); for pest or weed control at 500 g/ha: 500 g ai/ha, preemergence, visual injury rating about 10 d after treatment, read-out: Ryegrass, Italian plant response rating
Procedure, shortened: (§1)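 Seeds sprayed preemergence with a directed soil spray, or plants at 2 to 10 cm height and one- to two-leaf stage sprayed postemergence, with test chemicals in a non-phytotoxic solvent mixture containing surfactant, in loam soil–sand blend. Injury rated visually against untreated controls after about 10 d in greenhouse, 0 (no effect) to 100 (complete control).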

[2] = system: barnyardgrass (Echinochloa crus-galli); assay: Test A preemergence; details: Echinochloa crus-galli, pre-emergence, 240 h; for pest or weed control at 125 g/ha: 125 g ai/ha, visual injury rating after approximately 10 d, read-out: Barnyardgrass plant response rating (0 to 100 scale, 0 is no effect, 100 is complete control); for pest or weed control at 500 g/ha: 500 g ai/ha, preemergence, visual injury rating about 10 d after treatment, read-out: Barnyardgrass plant response rating
Procedure, shortened: as §1

[3] = system: ragweed (common ragweed, Ambrosia elatior); assay: Test A preemergence; details: Ambrosia artemisiifolia, pre-emergence, 240 h; for pest or weed control at 125 g/ha: 125 g ai/ha, visual injury rating after approximately 10 d, read-out: Ragweed plant response rating (0 to 100 scale, 0 is no effect, 100 is complete control); for pest or weed control at 500 g/ha: 500 g ai/ha, preemergence, visual injury rating about 10 d after treatment, read-out: Ragweed plant response rating
Procedure, shortened: as §1

[4] = system: giant foxtail (Setaria faberii); assay: Test A preemergence; details: Setaria faberi, pre-emergence, 240 h; for pest or weed control at 125 g/ha: 125 g ai/ha, visual injury rating after approximately 10 d, read-out: Foxtail, Giant plant response rating (0 to 100 scale, 0 is no effect, 100 is complete control); for pest or weed control at 500 g/ha: 500 g ai/ha, preemergence, visual injury rating about 10 d after treatment, read-out: Foxtail, Giant plant response rating
Procedure, shortened: as §1

[5] = system: pigweed (Amaranthus retroflexus); assay: Test A preemergence; details: Amaranthus retroflexus, pre-emergence, 240 h; for pest or weed control at 125 g/ha: 125 g ai/ha, visual injury rating after approximately 10 d, read-out: Pigweed plant response rating (0 to 100 scale, 0 is no effect, 100 is complete control); for pest or weed control at 500 g/ha: 500 g ai/ha, preemergence, visual injury rating about 10 d after treatment, read-out: Pigweed plant response rating
[6] = system: Kochia (Kochia scoparia); assay: Test A preemergence; details: Bassia scoparia, pre-emergence, 240 h; for pest or weed control at 125 g/ha: 125 g ai/ha, visual injury rating after approximately 10 d, read-out: Kochia plant response rating (0 to 100 scale, 0 is no effect, 100 is complete control); for pest or weed control at 500 g/ha: 500 g ai/ha, preemergence, visual injury rating about 10 d after treatment, read-out: Kochia plant response rating
Procedure, shortened: as §1

[7] = system: barnyardgrass (Echinochloa crus-galli); assay: Test B flooded paddy test; details: Echinochloa crus-galli, Flood, 250 g ai/ha, read-out: Barnyardgrass plant response rating
Procedure, shortened: (§2)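 Greenhouse paddy pots with 2-leaf stage plants received compound by direct addition to floodwater 3 cm deep, kept at that level. Scored visually at 13–15 d versus controls (0 no effect; 100 complete control).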

[8] = system: rice (Oryra sativa); assay: Test B flooded paddy test; details: Oryza sativa, Flood, 250 g ai/ha, read-out: Rice plant response rating
Procedure, shortened: as §2

[9] = system: ducksalad (Heteranthera limosa); assay: Test B flooded paddy test; details: Heteranthera limosa, Flood, 250 g ai/ha, read-out: Ducksalad plant response rating
Procedure, shortened: as §2

[10] = system: sedge, umbrella (small-flower umbrella sedge, Cyperus difformis); assay: Test B flooded paddy test; details: Cyperus difformis, Flood, 250 g ai/ha, read-out: Sedge, Umbrella plant response rating
Procedure, shortened: as §2

[11] = system: barnyardgrass (Echinochloa crus-galli); assay: Test A postemergence; details: Echinochloa crus-galli, post-emergence, 240 h, Postemergence, read-out: Plant response rating, Barnyardgrass; for pest or weed control at 125 g/ha: 125 g ai/ha, visual injury after approximately 10 d, 0 to 100 scale where 0 is no effect and 100 is complete control
Procedure, shortened: as §1

[12] = system: ragweed (common ragweed, Ambrosia elatior); assay: Test A postemergence; details: Ambrosia artemisiifolia, post-emergence, 240 h, Postemergence, read-out: Plant response rating, Ragweed; for pest or weed control at 125 g/ha: 125 g ai/ha, visual injury after approximately 10 d, 0 to 100 scale where 0 is no effect and 100 is complete control
Procedure, shortened: as §1

[13] = system: giant foxtail (Setaria faberii); assay: Test A postemergence; details: Setaria faberi, post-emergence, 240 h, Postemergence, read-out: Plant response rating, Foxtail, Giant; for pest or weed control at 125 g/ha: 125 g ai/ha, visual injury after approximately 10 d, 0 to 100 scale where 0 is no effect and 100 is complete control
Procedure, shortened: as §1

[14] = system: Kochia (Kochia scoparia); assay: Test A postemergence; details: Bassia scoparia, post-emergence, 240 h, Postemergence, read-out: Plant response rating, Kochia; for pest or weed control at 125 g/ha: 125 g ai/ha, visual injury after approximately 10 d, 0 to 100 scale where 0 is no effect and 100 is complete control
Procedure, shortened: as §1

[15] = scale of 0 to 100 where 0 is no effect and 100 is complete control
[16] = 31 g ai/ha, visual injury after approx. 10 d, 0 to 100 scale, 0 no effect, 100 complete control
[17] = 0 to 100 scale (0 no effect, 100 complete control)
[18] = 0 to 100 scale where 0 is no effect and 100 is complete control

Row | SMILES | pest or weed control at 125 g/ha ([1]; Preemergence) [%] | pest or weed control at 125 g/ha ([2]; Preemergence) [%] | pest or weed control at 125 g/ha ([3]; Preemergence) [%] | pest or weed control at 125 g/ha ([4]; Preemergence) [%] | pest or weed control at 125 g/ha ([5]; Preemergence) [%] | pest or weed control at 125 g/ha ([6]; Preemergence) [%] | pest or weed control at 250 g/ha [7, 15] [%] | pest or weed control at 250 g/ha [8, 15] [%] | pest or weed control at 250 g/ha [9, 15] [%] | pest or weed control at 125 g/ha [11] [%] | pest or weed control at 125 g/ha [12] [%] | pest or weed control at 125 g/ha [13] [%] | pest or weed control at 125 g/ha [14] [%] | pest or weed control at 500 g/ha [1, 17] [%] | pest or weed control at 500 g/ha [2, 17] [%] | pest or weed control at 500 g/ha [3, 17] [%] | pest or weed control at 500 g/ha [4, 17] [%] | pest or weed control at 500 g/ha [5, 17] [%] | pest or weed control at 500 g/ha [6, 17] [%] | pest or weed control at 250 g/ha [10, 18] [%] | further results
1 | CCOc1cc([C@H]2CN(C)C(=O)[C@@H]2C(=O)Nc2cccc(F)c2F)cc(C(F)(F)F)c1 [Compound 971] | 80 | 90 | 20 | 90 | 20 | 0 | 60 | 45 | 85 | 80 | 0 | 80 | 40 | – | – | – | – | – | – | – | pest or weed control at 31 g/ha ([1]; Preemergence, 31 g ai/ha, 0 to 100 scale (0 no effect, 100 complete control), read-out: Plant response rating, Ryegrass, Italian): 50%; pest or weed control at 31 g/ha ([2]; Preemergence, 31 g ai/ha, 0 to 100 scale (0 no effect, 100 complete control), read-out: Plant response rating, Barnyardgrass): 70%; pest or weed control at 31 g/ha ([3]; Preemergence, 31 g ai/ha, 0 to 100 scale (0 no effect, 100 complete control), read-out: Plant response rating, Ragweed): 0%; pest or weed control at 31 g/ha ([4]; Preemergence, 31 g ai/ha, 0 to 100 scale (0 no effect, 100 complete control), read-out: Plant response rating, Foxtail, Giant): 70%; pest or weed control at 31 g/ha ([5]; Preemergence, 31 g ai/ha, 0 to 100 scale (0 no effect, 100 complete control), read-out: Plant response rating, Pigweed): 20%; pest or weed control at 31 g/ha ([6]; Preemergence, 31 g ai/ha, 0 to 100 scale (0 no effect, 100 complete control), read-out: Plant response rating, Kochia): 0%; pest or weed control at 250 g/ha [10, 15]: 0%; pest or weed control at 31 g/ha [11, 16]: 50%; pest or weed control at 31 g/ha [12, 16]: 0%; pest or weed control at 31 g/ha [13, 16]: 80%; pest or weed control at 31 g/ha [14, 16]: 20%
2 | CN1C[C@H](c2cc(F)cc(C(F)(F)F)c2)[C@@H](C(=O)Nc2ccc(F)c(F)c2F)C1=O [Compound 993] | 80 | 90 | 0 | 90 | 40 | 0 | 70 | 40 | 85 | 90 | 0 | 90 | 20 | 90 | 90 | 60 | 90 | 80 | 50 | 60 | –
3 | CN1CC[C@H](c2ccc(OC(F)(F)F)cc2)[C@@H](C(=O)Nc2ccccc2C(F)(F)F)C1=O [Compound 998] | 0 | 0 | 0 | 0 | 0 | 0 | 0 | 0 | 0 | 0 | 0 | 0 | 0 | 0 | 0 | 0 | 0 | 0 | 0 | 0 | –
4 | CN1CC[C@H](c2ccc(OC(F)(F)F)cc2)[C@@H](C(=O)Nc2cccc(F)c2F)C1=O [Compound 999] | 0 | 70 | 0 | 90 | 0 | 0 | – | – | – | 100 | 0 | 40 | 40 | 50 | 90 | 30 | 90 | 50 | 20 | 0 | pest or weed control at 250 g/ha [7, 18]: 0%; pest or weed control at 250 g/ha [8, 18]: 0%; pest or weed control at 250 g/ha [9, 18]: 85%
